The values that follow come from US12268707B2, “Treatment for coronavirus infection and associated cytokine toxicity” (priority 2020, dated 2025).

The test system of one data set is SARS-CoV-2. The data set is classed as cell-based.
For data set [1] the following is noted: fraction of heparin's anticoagulant properties; cited from earlier work.
The conditions of data set [2]: high doses for extended periods; cited from earlier work.
The conditions of data set [3]: administered orally, intravenously or subcutaneously; cited from earlier work.

“And” between values parts separate entries of the source, which are not always exact repeats. Identical values can stand only once.

Consider pentosan polysulfate [PPS], for which, in the data set on SARS-CoV-2, the “reduction in virus infectivity (TCID50/mL)” value is “almost four orders of magnitude reduction” and the “virus replication in Calu3 cells” value is recorded as “inhibited much more strongly”. For the same substance, the “anticoagulant properties relative to heparin” value in data set [1] is “about 1/15 and 1/15”. Besides, the side effects result in data set [2] is “only limited side effects”. Also, in data set [3], the bioavailability result is “bioavailable”.
